Laboratory results: patent US20250090520A1, “DERIVATIVES OF TURBINMICIN AS ANTIFUNGAL AGENTS” (Wisconsin Alumni Research Foundation, priority 2021, published 2025)
≈ marks a conversion by molar mass, not a printed value. Where two headings read alike, the source gives them in different places.

How the values were obtained:
[1] = system: C. albicans K-1; experiment: In vitro MIC susceptibility testing, broth microdilution; assay type: cell-based, Candida albicans; conditions: for MIC: Candida albicans, read-out: MIC C. albicans K-1
Experimental: (§1) In vitro MIC susceptibility testing. […] Six untreated media controls were included on each plate. The plates were incubated at 33° C. for 24 hours. The MICs were determined as the lowest concentration that inhibited visible growth. The MICs were read at 24.

[2] = system: C. auris B 11211; experiment: as above; assay type: cell-based, Candida auris; conditions: for MIC: Candidozyma auris, read-out: MIC C. auris B11211
Experimental: In vitro MIC susceptibility testing. Turbinmicin analogs of the present disclosure were tested for antifungal activity against four Candida isolates, C. albicans K-1, C. tropicalis 98-234, C. auris B 11211, and C. glabrata 4720, and MICs were determined using a broth microdilution method for yeasts. A turbinmicin analog was dissolved in DMSO, serially diluted to 10 concentrations (0.125-64 μg/mL), and tested in a 96-well plate in RPMI medium. […] Six untreated media controls were included on each plate. The plates were incubated at 33° C. for 24 hours. The MICs were determined as the lowest concentration that inhibited visible growth. The MICs were read at 24.

[3] = system: C. glabrata 4720; experiment: as above; assay type: cell-based, Candida glabrata; conditions: for MIC: read-out: MIC C. glabrata 4720
Experimental: as §1

[4] = system: C. tropicalis 98-234; experiment: as above; assay type: cell-based, Candida tropicalis; conditions: for MIC: read-out: MIC C. tropicalis 98-234
Experimental: as §1

[5] = system: four Candida isolates, C. albicans K-1, C. tropicalis 98-234, C. auris B 11211, and C. glabrata 4720; experiment: In vitro MIC susceptibility testing, positive control over the isolates; assay type: cell-based; conditions: RPMI medium, 33° C., 24 hours
Experimental: In vitro MIC susceptibility testing. Turbinmicin analogs of the present disclosure were tested for antifungal activity against four Candida isolates, C. albicans K-1, C. tropicalis 98-234, C. auris B 11211, and C. glabrata 4720, and MICs were determined using a broth microdilution method for yeasts. A turbinmicin analog was dissolved in DMSO, serially diluted to 10 concentrations (0.125-64 μg/mL), and tested in a 96-well plate in RPMI medium. Amphotericin B was used as a positive control and the MICs range were 0.25-1.5 μg/mL. Six untreated media controls were included on each plate. The plates were incubated at 33° C. for 24 hours. The MICs were determined as the lowest concentration that inhibited visible growth. The MICs were read at 24. Results are shown in Table 1 for turbinmicin analog activity against various fungi, including drug-resistant fungi.

[6] = Nakaseomyces glabratus, 4720, 24 h
[7] = Candida tropicalis, 98234, 24 h
[8] = RPMI medium, 33° C., 24 hours, lowest concentration that inhibited visible growth
[9] = K1, RPMI medium, 33° C., 24 hours, lowest concentration that inhibited visible growth
[10] = B11211, multidrug-resistant clinical isolate, RPMI medium, 33° C., 24 hours, lowest concentration that inhibited visible growth
[11] = Nakaseomyces glabratus, 4720, RPMI medium, 33° C., 24 hours, lowest concentration that inhibited visible growth
[12] = Candida tropicalis, 98234, RPMI medium, 33° C., 24 hours, lowest concentration that inhibited visible growth

Compound | MIC ([1]; K1, 24 h) [µg/mL] | MIC ([2]; B11211, 24 h) [µg/mL] | MIC [3, 6] [µg/mL] | MIC [4, 7] [µg/mL] | other results
C/C=C/C=C/C=C/C(=O)O[C@@H]1C=CC[C@H]2C(=NCCN3CCCC3)c3c(O)c4c5c(c3O[C@H]12)OCO[C@@H]5C[C@@H]1C(=O)c2cc(C)[nH]c(=O)c2C(=O)[C@]41O [Compound T19] | 0.5 (≈ 0.691 µM) | 0.25 (≈ 0.345 µM) | 0.5 (≈ 0.691 µM) | 0.38 (≈ 0.525 µM) | 
C/C=C/C=C/C=C/C(=O)O[C@@H]1C=CC[C@H]2/C(=N/CCN(C)C)c3c(O)c4c5c(c3O[C@H]12)OCO[C@@H]5C[C@@H]1C(=O)c2cc(C)[nH]c(=O)c2C(=O)[C@]41O [Compound T8] | 0.13 (≈ 0.186 µM) | 0.25 (≈ 0.358 µM) | 0.25 (≈ 0.358 µM) | 0.13 (≈ 0.186 µM) | 
C/C=C/C=C/C=C/C(=O)O[C@@H]1C=CC[C@H]2C(=NCCCCCN3CCOCC3)c3c(O)c4c5c(c3O[C@H]12)OCO[C@@H]5C[C@@H]1C(=O)c2cc(C)[nH]c(=O)c2C(=O)[C@]41O [Compound T27] | 1 (≈ 1.28 µM) | 0.5 (≈ 0.64 µM) | 1 (≈ 1.28 µM) | 2 (≈ 2.56 µM) | 
Turbinmicin [reference compound] |  |  |  |  | MIC C. albicans K-1 [1, 8]: 0.06 µg/mL; MIC C. auris B11211 ([2]; multidrug-resistant clinical isolate, RPMI medium, 33° C., 24 hours, lowest concentration that inhibited visible growth): 0.05 µg/mL; MIC C. glabrata 4720 [3, 8]: 0.13 µg/mL; MIC C. tropicalis 98-234 [4, 8]: 0.25 µg/mL
C/C=C/C=C/C=C/C(=O)O[C@@H]1C=CC[C@H]2/C(=N/CCN3CCCCC3)c3c(O)c4c5c(c3O[C@H]12)OCO[C@@H]5C[C@@H]1C(=O)c2cc(C)[nH]c(=O)c2C(=O)[C@]41O [Compound T21] | 0.25 (≈ 0.339 µM) | 0.06 (≈ 0.0813 µM) | 0.25 (≈ 0.339 µM) | 0.25 (≈ 0.339 µM) | 
C/C=C/C=C/C=C/C(=O)O[C@@H]1C=CC[C@H]2C(=NCCN3CCS(=O)(=O)CC3)c3c(O)c4c5c(c3O[C@H]12)OCO[C@@H]5C[C@@H]1C(=O)c2cc(C)[nH]c(=O)c2C(=O)[C@]41O [Compound T24] | 0.75 (≈ 0.952 µM) | 0.28 (≈ 0.355 µM) | 1 (≈ 1.27 µM) | 1 (≈ 1.27 µM) | 
C[C@@H]1[C@H](O)[C@@H](C)/C=C/C=C/C=C/C=C/C=C/C=C/C=C/[C@H](O[C@@H]2O[C@H](C)[C@@H](O)[C@H](N)[C@@H]2O)C[C@@H]2O[C@](O)(C[C@@H](O)C[C@@H](O)[C@H](O)CC[C@@H](O)C[C@@H](O)CC(=O)O[C@H]1C)C[C@H](O)[C@H]2C(=O)O [Amphotericin B] |  |  |  |  | MICs range (positive control) [5]: 0.25 to 1.5 µg/mL
C/C=C/C=C/C=C/C(=O)O[C@@H]1C=CC[C@H]2/C(=N/CCO)c3c(O)c4c5c(c3O[C@H]12)OCO[C@@H]5C[C@@H]1C(=O)c2cc(C)[nH]c(=O)c2C(=O)[C@]41O [Compound T7] | > 4 | > 4 | > 4 | > 4 | 
C/C=C/C=C/C=C/C(=O)O[C@@H]1C=CC[C@H]2/C(=N/C)c3c(O)c4c5c(c3O[C@H]12)OCO[C@@H]5C[C@@H]1C(=O)c2cc(C)[nH]c(=O)c2C(=O)[C@]41O [Compound T12] | 1 (≈ 1.56 µM) | > 4 | 0.5 (≈ 0.78 µM) | 1 (≈ 1.56 µM) | 
C/C=C/C=C/C=C/C(=O)O[C@@H]1C=CC[C@H]2C(=NCCCNC)c3c(O)c4c5c(c3O[C@H]12)OCO[C@@H]5C[C@@H]1C(=O)c2cc(C)[nH]c(=O)c2C(=O)[C@]41O [Compound T18] | 1 (≈ 1.43 µM) | 0.38 (≈ 0.545 µM) | 0.5 (≈ 0.717 µM) | 0.75 (≈ 1.07 µM) | 
C/C=C/C=C/C=C/C(=O)O[C@@H]1C=CC[C@H]2/C(=N/Cc3ccccc3)c3c(O)c4c5c(c3O[C@H]12)OCO[C@@H]5C[C@@H]1C(=O)c2cc(C)[nH]c(=O)c2C(=O)[C@]41O [Compound T10] |  |  |  |  | MIC [1, 9]: 2 µg/mL (≈ 2.79 µM); MIC [2, 10]: 4 µg/mL (≈ 5.58 µM); MIC [3, 11]: 1 µg/mL (≈ 1.4 µM); MIC [4, 12]: 4 µg/mL (≈ 5.58 µM)
C/C=C/C=C/C=C/C(=O)O[C@@H]1C=CC[C@H]2C(=NCCN3CCN(C)CC3)c3c(O)c4c5c(c3O[C@H]12)OCO[C@@H]5C[C@@H]1C(=O)c2cc(C)[nH]c(=O)c2C(=O)[C@]41O [Compound T26] |  |  |  |  | MIC [1, 9]: 0.5 µg/mL (≈ 0.664 µM); MIC [2, 10]: 0.03 µg/mL (≈ 0.0399 µM); MIC [3, 11]: 0.5 µg/mL (≈ 0.664 µM); MIC [4, 12]: 0.05 µg/mL (≈ 0.0664 µM)
C#CC/N=C1\c2c(O)c3c4c(c2O[C@@H]2[C@H](OC(=O)/C=C/C=C/C=C/C)C=CC[C@@H]12)OCO[C@@H]4C[C@@H]1C(=O)c2cc(C)[nH]c(=O)c2C(=O)[C@]31O [Compound T15] | > 4 | > 4 | > 4 | > 4 | 
C/C=C/C=C/C=C/C(=O)O[C@@H]1C=CC[C@H]2/C(=N/CCc3ccccn3)c3c(O)c4c5c(c3O[C@H]12)OCO[C@@H]5C[C@@H]1C(=O)c2cc(C)[nH]c(=O)c2C(=O)[C@]41O [Compound T13] | > 4 | > 4 | > 4 | > 4 | 
C/C=C/C=C/C=C/C(=O)O[C@@H]1C=CC[C@H]2C(=NCCCN3CCOCC3)c3c(O)c4c5c(c3O[C@H]12)OCO[C@@H]5C[C@@H]1C(=O)c2cc(C)[nH]c(=O)c2C(=O)[C@]41O [Compound T23] |  |  |  |  | MIC [1, 9]: 1 µg/mL (≈ 1.33 µM); MIC [2, 10]: 0.63 µg/mL (≈ 0.836 µM); MIC [3, 11]: 1 µg/mL (≈ 1.33 µM); MIC [4, 12]: 1 µg/mL (≈ 1.33 µM)
C/C=C/C=C/C=C/C(=O)O[C@@H]1C=CC[C@H]2/C(=N\C(C)CN3CCOCC3)c3c(O)c4c5c(c3O[C@H]12)OCO[C@@H]5C[C@@H]1C(=O)c2cc(C)[nH]c(=O)c2C(=O)[C@]41O (stereo partly drawn) [Compound T25] | 0.5 (≈ 0.663 µM) | 0.25 (≈ 0.332 µM) | 0.5 (≈ 0.663 µM) | 1 (≈ 1.33 µM) | 
C=CC/N=C1/c2c(O)c3c4c(c2O[C@@H]2[C@H](OC(=O)/C=C/C=C/C=C/C)C=CC[C@@H]12)OCO[C@@H]4C[C@@H]1C(=O)c2cc(C)[nH]c(=O)c2C(=O)[C@]31O [Compound T5] | 2 (≈ 3 µM) | 2 (≈ 3 µM) | 4 (≈ 6 µM) | 4 (≈ 6 µM) | 
C/C=C/C=C/C=C/C(=O)O[C@@H]1C=CC[C@H]2/C(=N/CCCC)c3c(O)c4c5c(c3O[C@H]12)OCO[C@@H]5C[C@@H]1C(=O)c2cc(C)[nH]c(=O)c2C(=O)[C@]41O [Compound T6] |  |  |  |  | MIC [1, 9]: > 4 µg/mL; MIC [2, 10]: > 4 µg/mL; MIC [3, 11]: > 4 µg/mL; MIC [4, 12]: > 4 µg/mL
